# Laboratory results reported in publication PMC9171067, “A High Throughput Cell-Based Screen Assay for LINE-1 ORF1p Expression Inhibitors Using the In-Cell Western Technique” (Frontiers in Pharmacology, 2022).
# pEC50: −log10 of the molar value. Read-outs that look alike come from different tables or passages of the source.
# Experiments:
# LINE-1 5'-UTR promoter = experiment: L1-FL luciferase reporter driven by the LINE-1 5'-UTR promoter in 293 T cells; format: cell-based, human
# [1] = CCK-8 cell viability (CC50) in T-47D cells; format: cell-based; conditions: human
# Experimental: (§1) The 50% cytotoxic concentration (CC50) values of 5 drug leads were measured using normal […] cell line HUVEC and breast cancer cell line T-47D at 6 different inhibitor concentrations. HUVEC and T47-D cell lines in the logarithmic phase were reseeded into 96-well plates (Nest Inc.) at a density of 1×10^3 cells/well and the plates were incubated for up to 2 days. At the end of each experiment, cells were incubated with 10 µl of the CCK-8 reagent (Vazyme) at 37°C for 2 h. The optical density (OD) at 450 nm was measured by a microplate reader (PerkinElmer Inc.) according to the manufacturer’s instructions. The data are expressed as % of the control. The experiments were repeated at least three times. The 50% effective concentration (EC50) of 5 drugs were measured using breast cancer cell line T-47D and 6 different inhibitor concentrations.
# LINE-1 ORF1p expression [2] = experiment: In-Cell Western (ICW) assay of LINE-1 ORF1p expression in T-47D cells; format: cell-based, human; conditions: for pEC50: Homo sapiens, T47D, T-47D cells 15000/well, serially diluted compound, 24 h incubation, ICW, read-out: EC50 for diminishing LINE-1 ORF1p expression level; for Inhibition Activity (%) of LINE-1 ORF1p expression: ICW screen, T47D cells, compounds 10 μM, 48 h
# Experimental: T-47D cells grown at 1×10^3 cells per well in 96-well plates (Corning Incorporated Costar, #3603). After 24 h incubation, chemical compounds (10 μM) were added to each well. After 48 h incubation, plates were fixed with 4% paraformaldehyde (PFA) for 20min at room temperature (RT). Then the cells were permeabilized with 0.2% Triton X-100 for 15min at RT, and blocked with Odyssey Blocking Buffer (TBS) (LI-COR, 9275000) for 1 h at RT. The cells were incubated at 4°C overnight with a rabbit monoclonal anti-ORF1p antibody (diluted 1:200, Abcam) and a mouse monoclonal anti-beta-actin antibody (diluted 1:250, Abcam) with gentle shakes. After five washes with PBS, the cells were stained with an IRDye® 800RD Goat anti-Rabbit antibody (diluted 1:400, LI-COR, #926–68071) and IRDye® 680CW Goat anti-Mouse antibody (1:600, LI-COR, #926–32210) at RT for 2 h. The microplates, were scanned with the Odyssey system (LI-COR), and the integrated fluorescence intensities representing the protein expression levels were acquired using Image Studio Ver 5.2 software ([Egorina et al., 2006]). Compared with DMSO control, compounds with an inhibition rate over 50% were defined as promising compounds.
# as §1
# [3] = system: LINE-1 retrotransposition; experiment: LINE-1 retrotransposition dual-luciferase assay (pWA367 reporter) in HeLa cells; format: cell-based, human; conditions: 10 μM
# Experimental: This assay is utilized to measure the influence of the compounds on LINE-1 retrotransposition or the L1 5′UTR promoter activity. A 200:1 ratio of FL-L1 or pWA367 and pCMV-Rluc was transfected into HeLa cells, Rluc was served as a control to normalize the Firefly luciferase activity level. Six hours post-transfection, cells were reseeded in 96-well plates, and the plates were incubated for up to 1 day. Next, compounds #1:Hydroxyprogesterone (10μM, 20 μM), # 2: 2,2':5′,2″-Terthiophene (10μM, 20 μM) and # 3: Ethynyl estradiol (10μM, 20 μM) were added. 72–96 h after adding tested compounds to the cells, 25 μl passive lysis buffer was added in each well to lyse cells, and then, 20 μl lysate was detected by dual-luciferase reporter assay system (Promega, USA). Furthermore, the activity levels of Renilla and Firefly luciferase were quantified using Promega Luciferase Assay Kit (Promega) on a Berthold microplate reader.
# LINE-1 ORF1p expression [4] = experiment: Immunoblotting of LINE-1 ORF1p in T-47D cells; format: cell-based, human; conditions: 48 h
# Experimental: Cells were collected and lysed with NP-40 buffer (Beyotime). The protein lysis was boiled for 20 min at 100 C in SDS-PAGE loading buffer. Equal amounts of cell lysate were […]. Proteins were transferred onto a PVDF membrane, blocked with 5% skim milk, and probed with anti-ORF1p antibody (diluted 1:1000) and anti-β-actin antibody (diluted 1:5,000) at 4°C overnight. After four wash steps with PBS plus 0.1% Tween 20 (PBST), the membrane was incubated with 1:5,000 dilution of HRP-conjugated goat-anti-mouse, HRP-conjugated goat-anti-rabbit, IRDye® 800CW Goat anti-Rabbit 926–32,211 (1:10,000, LI-COR) and IRDye® 700CW Goat anti-Mouse 926–32,210 (1:10,000, LI-COR) secondary antibodies for 1 h at room temperature. After four wash steps with PBS plus 0.1% Tween 20 (PBST), signals were detected using Western Lightning chemiluminescence reagent or analyzed with the Odyssey infrared imaging system and the software program as specified in the Odyssey software manual.
# NCl-H661 cells = experiment: CCK8 cell proliferation assay, NCl-H661; format: cell-based, human; conditions: IFNα17 200 or 500 Units/mL, 6 days
# Experimental: (§2) To analyze the anti-proliferation effects of the three compounds and IFN17α against carcinoma cells, NCI-H661, NCI-H446, T47-D, MRC-5 and WI-38 cell lines in the logarithmic phase were reseeded into 96-well plates (Nest Inc.) at a density of 1×10^4 cells/well and the plates were incubated for 24 h. Next, IFN17α (200U/mL) was incubated with NCI-H661, NCI-H446, T47-D and MRC-5 cells, compounds #1(Hydroxyprogesterone), #2 (2,2':5′,2″-Terthiophene) and #3 (Ethynyl estradiol) were added at the concentrations of 10μM and 20 μM respectively, for consecutive 6 days. Cells were incubated with 10 µl of the CCK-8 reagent (Vazyme) each day at 37°C for 2 h. The optical density (OD) at 450 nm was measured by a microplate reader (PerkinElmer Inc.) according to the manufacturer’s instructions. The experiments were repeated at least three times.
# NCl-H446 cells = experiment: CCK8 cell proliferation assay, NCl-H446; format: cell-based, human; conditions: IFNα17 200 or 500 Units/mL, 6 days
# Experimental: as §2
# LINE-1 RNA = experiment: RT-qPCR of LINE-1 RNA level in T-47D cells; format: cell-based, human; conditions: IFNα17 200 Units/mL, 48 h
# Description: Total RNA was extracted from cells using TRIZOL Reagent (Invitrogen). RNA was reverse transcribed to cDNA using MLV Reverse Transcriptase (Invitrogen) with random primers. The cDNAs were quantified using SsoFast EvaGreen Supermix (Bio-Rad) with Bio Rad iCycler iQ5 Real-Time PCR systems. Primer sequences for cDNAs were as follows: (5′-AATGAGATCACATGGACACAGGAAG-3’/5′- TGTATACATGTGCCATGCTGGTGC-3′).
# T47D cells = experiment: CCK8 cell proliferation assay, T47D; format: cell-based, human; conditions: IFNα17 500 Units/mL, 6 days
# Experimental: To analyze the anti-proliferation effects of the three compounds and IFN17α against carcinoma cells, NCI-H661, NCI-H446, T47-D, MRC-5 and WI-38 cell lines in the logarithmic phase were reseeded into 96-well plates (Nest Inc.) at a density of 1×10^4 cells/well and the plates were incubated for 24 h. […] Cells were incubated with 10 µl of the CCK-8 reagent (Vazyme) each day at 37°C for 2 h. The optical density (OD) at 450 nm was measured by a microplate reader (PerkinElmer Inc.) according to the manufacturer’s instructions. The experiments were repeated at least three times.
molecule,measurement,setting,value
"c1csc(-c2ccc(-c3cccs3)s2)c1 [#2, 2,2':5′,2″-Terthiophene]",effect on luciferase value (L1-FL),LINE-1 5'-UTR promoter; 10 μM,mild effects
same,CC50,[1],95.5 µM
same,pEC50,LINE-1 ORF1p expression [2],4.49
same,Inhibition Activity (%) of LINE-1 ORF1p expression,LINE-1 ORF1p expression [2],56%
"C#C[C@]1(O)CC[C@H]2[C@@H]3CCc4cc(O)ccc4[C@H]3CC[C@@]21C [#3, Ethynyl estradiol]",effect on LINE-1 retrotransposition (Fluc/Rluc),[3],best potent activity
same,suppression of luciferase value (L1-FL),LINE-1 5'-UTR promoter; 10 μM,over 60%
same,CC50,"[1]; T-47D breast cancer cells, T-47D cells 1000/well, CCK-8, read-out: CC50",91.4 µM
same,pEC50,LINE-1 ORF1p expression [2],4.91
same,Inhibition Activity (%) of LINE-1 ORF1p expression,LINE-1 ORF1p expression [2],60%
"Cc1cn([C@H]2C=C[C@@H](CO)O2)c(=O)[nH]c1=O [d4T, reference compound]",effect on LINE-1 retrotransposition (Fluc/Rluc),[3],inhibited LINE-1 retrotransposition
same,effect on LINE-1 ORF1p level by immunoblotting,LINE-1 ORF1p expression [4],little effect
IFNα17: interferon used as positive control in inhibiting LINE-1 ORF1p expression level in the ICW assay,effect of IFNα17 on proliferation of NCl-H661,NCl-H661 cells,significantly decrease
same,effect on luciferase value (L1-FL),"LINE-1 5'-UTR promoter; IFNα17 200 Unit/mL, 500 Unit/mL",mild effects
same,effect of IFNα17 on proliferation of NCl-H446,NCl-H446 cells,significantly decrease
same,effect on ICW fluorescence value (ORF1p),"LINE-1 ORF1p expression [2]; T-47D cells, increasing doses of IFNα17",decreased fluorescence value in a dose-dependent way
same,effect on LINE-1 ORF1p level by immunoblotting,LINE-1 ORF1p expression [4],obviously decrease ORF1p level in a dose-dependent manner
same,suppression of LINE-1 RNA level,LINE-1 RNA,over 60%
same,effect of IFNα17 on proliferation of T47D,T47D cells,inhibition became obvious
